Assay results as given in patent US20250019370A1, “L-LYSINE SALT OF 4-CHLORO-5-[4-(2,6-DICHLOROPHENYL)SULFONYLPIPERAZIN-1-YL]-1-BENZOFURAN-2-CARBOXYLIC ACID AND VARIOUS FORMS THEREOF” (ENYO PHARMA, priority 2023, published 2025).

What was measured:
[1] = Pharmacokinetic study Experiment #1, oral administration in rats; type: in vivo, rat; conditions: rat, in vivo, 50 mg EqEYP001/Kg, male rats, aqueous formulation
Method: (§1) In a first study (Experiment #1), EYP001, EYP001 Meglumine salt, and EYP001 L-lysine salt Form I in aqueous formulations (0.5% CMC, 0.25% Tween 80, water) were orally administrated at a dose of 50 mg EqEYP001/Kg in 3 male rats for each compound. Blood samples were taken at 0.25 h, 0.5 h, 1 h, 2 h, 4 h, 6 h, 8 h, 12 h, and 24 h after oral administration.

[2] = Pharmacokinetic study Experiment #4, oral administration in rats; type: in vivo, rat; conditions: 10 mg EqEYP001/Kg, male rats
Method: In a fourth study (Experiment #4), EYP001, EYP001 L-lysine salt amorphous Form and EYP001 L-lysine salt Form VI in aqueous formulations (0.5% CMC, 0.25% Tween 80, water) were orally administrated at a dose of 10 mg EqEYP001/Kg in 8 male rats for each compound (4 rats on day 1 and 4 rats on day 2 for each compound). Blood samples were taken at 0.25 h, 0.5 h, 1 h, 2 h, 4 h, 6 h, 8 h, 12 h, and 24 h after oral administration.

[3] = Pharmacokinetic study Experiment #3, oral administration in rats; type: in vivo, rat; conditions: rat, plasma, 10 mg EqEYP001/Kg, male rats, aqueous formulation
Method: as §1, with “third” for “first”, “#3),” for “#1), EYP001,”, “EYP001” for “EYP001 Meglumine salt,”, “10” for “50”, “6-8” for “3”

[4] = Solubility kinetics in pH 4.5 acetate buffer; type: physicochemical; conditions: 37 ° C.
Method: The solubility kinetics of the salt forms as well as the native EYP001 free acid form were determined in FaSSIF and FeSSIF media, and in a pH 4.5 acetate buffer as detailed below:
The samples were prepared by adding an excess of each tested bulk (salt or native EYP001) to a given volume of test medium. The suspension was stirred by orbital stirring over 1 hour (in both pH 4.5 acetate buffer and FeSSIF medium) or 24 hours (inFaSSIF medium) at 37° C., protected from light.
In pH 4.5 acetate buffer, the soluble concentration was assessed after 0.5 hour and 1 hour of stirring.
At each time point, the “supernatant” was isolated and diluted in a solvent mixture allowing its injection into the chromatographic system. The concentration in solution in the test medium was determined by HPLC with external standardization.

[5] = Solubility kinetics in FeSSIF medium; type: physicochemical; conditions: for Soluble fraction: 37 ° C.
Method: The solubility kinetics of the salt forms as well as the native EYP001 free acid form were determined in FaSSIF and FeSSIF media, and in a pH 4.5 acetate buffer as detailed below: The samples were prepared by adding an excess of each tested bulk (salt or native EYP001) to a given volume of test medium. […] In FaSSIF medium, the soluble concentration was assessed after 24 hours of stirring. […] At each time point, the “supernatant” was isolated and diluted in a solvent mixture allowing its injection into the chromatographic system. The concentration in solution in the test medium was determined by HPLC with external standardization.

[6] = Pharmacokinetic study Experiment #2, oral administration in rats; type: in vivo, rat; conditions: rat, in vivo, 50 mg EqEYP001/Kg, male rats, aqueous formulation
Method: as §1, with “second” for “first”, “#2),” for “#1), EYP001,”, “EYP001” for “EYP001 Meglumine salt,”, “8” for “3”

[7] = Solubility kinetics in FaSSIF medium; type: physicochemical; conditions: after 24 h
Method: The solubility kinetics of the salt forms as well as the native EYP001 free acid form were determined in FaSSIF and FeSSIF media, and in a pH 4.5 acetate buffer as detailed below: The samples were prepared by adding an excess of each tested bulk (salt or native EYP001) to a given volume of test medium. The suspension was stirred by orbital stirring over 1 hour (in both pH 4.5 acetate buffer and FeSSIF medium) or 24 hours ([…] medium) at 37° C., protected from light. In FaSSIF medium, the soluble concentration was assessed after 24 hours of stirring. […] At each time point, the “supernatant” was isolated and diluted in a solvent mixture allowing its injection into the chromatographic system. The concentration in solution in the test medium was determined by HPLC with external standardization.

[8] = Polymorph screening (solids analysed by XRPD); type: physicochemical; conditions: amorphous material as starting material
Method: A polymorph screening was performed on EYP001 L-lysine salt crystalline form I (form I as starting material unless otherwise specified).
A number of unique materials with different patterns were produced, including crystalline forms I-IV and an amorphous material. All solids from the screening experiments were analysed by XRPD analysis and the resulting patterns compared to that of the reference. The observed solids and their ways of obtention are described in Table 16.

[9] = Stability of freeze-dried amorphous material under ambient conditions; type: physicochemical
Method: The amorphous material was also prepared by freeze drying of EYP001 L-lysine salt (form I). EYP001 L-lysine salt (form I) was dissolved in CH3CN/H2O (62:38 v:v) at a concentration of 20 mg/mL. Then the solution was freeze-dried to form amorphous EYP001 L-lysine salt. This amorphous material was found stable over at least 19 days under ambient conditions.

[10] = Dynamic Vapor Sorption (DVS) analysis (gas water sorption); type: physicochemical
Method: The dynamic vapor sorption (DVS) analysis (gas water sorption) was performed on a DVS-Intrinsic incubator (SMS Ltd), equipped with DVS-Intrinsic Control Software 1.0. The sample, placed in an aluminium basket holder, was submitted to a full-cycle analysis (sorption followed by desorption cycle) under the following conditions:
The sample was first pre-dried under a stream of dry air until a stabilized sample mass was observed. Then, the relative humidity was increased by 5% increments. At each step, the sample mass was allowed to increase until equilibrium is reached (according to a given dm/dt target), and then a new relative humidity rise occurred. Relative humidity was ramped up to 95%. After equilibration at this point, desorption began in a similar stepwise manner, with sample mass decrease again allowed to stabilize after each incremental humidity decrease.
With both segments of the above-described method, the sample mass recording allowed describing of the whole vapor water sorption/desorption behaviour versus relative humidity.

[11] = Thermogravimetric analysis (TGA), mass losses upon heating; type: physicochemical; conditions: listed as EYP001 L-lysine salt (amorphous form)
Method: Thermogravimetric analysis was performed on a TA Instruments TGA Hi-Res 2950 apparatus equipped with an evolved gas analysis furnace. A sample was placed in an opened aluminium basket and analysed according to the following conditions: […]

[12] = Entry 4*: no solvent, 23% RH stress
[13] = Entry 5*: no solvent, 40° C./75% RH stress
[14] = Entry 6*: no solvent, 59% RH stress
[15] = Entry 11*: THF, flash evaporation
[16] = aqueous formulation, listed as EYP001 L-lysine salt (Amorphous Form)
[17] = versus EYP001 free acid, listed as EYP001 L-lysine salt (Amorphous Form)
[18] = after 0.5 h, listed as EYP001 L-Lysine salt (Amorphous form)
[19] = after 1 h, listed as EYP001 L-Lysine salt (Amorphous form)

SMILES: O=C(O)c1cc2c(Cl)c(N3CCN(S(=O)(=O)c4c(Cl)cccc4Cl)CC3)ccc2o1 [EYP001, 4-chloro-5-[4-(2,6-dichlorophenyl)sulfonylpiperazin-1-yl]-1-benzofuran-2-carboxylic acid]
- Cmax [1]: 6990 ng/mL
- AUC(0-t) ([1]; read-out: Mean AUC0-24): 52300 ng·h/mL
- Cmax ([2]; rat, in vivo, aqueous formulation): 1440 ng/mL
- AUC(0-t) ([2]; rat, in vivo, aqueous formulation, read-out: Mean AUClast): 3380 ng·h/mL
- Cmax [3]: 1350 ng/mL
- AUC(0-t) ([3]; read-out: Mean AUC0-24): 3970 ng·h/mL
- Soluble fraction ([4]; after 0.5 h): 0.004 mg/mL of EYP001
- Soluble fraction ([4]; after 1 h): 0.003 mg/mL of EYP001
- Soluble fraction ([5]; after 0.5 h): 0.38 mg/mL of EYP001
- Soluble fraction ([5]; after 1 h): 0.45 mg/mL of EYP001
- Soluble fraction ([5]; after 2 h): 0.51 mg/mL of EYP001
- Soluble fraction ([5]; after 24 h): 0.62 mg/mL of EYP001
- pH ([5]; pH given with the soluble fraction, after 0.5 h): (pH = 4.9)
- pH ([5]; pH given with the soluble fraction, after 1 h): (pH = 6.4)
- pH ([5]; pH given with the soluble fraction, after 2 h): (pH = 4.9)
- pH ([5]; pH given with the soluble fraction, after 24 h): (pH = 4.9)
- Cmax [6]: 5580 ng/mL
- AUC(0-t) ([6]; read-out: Mean AUC0-24): 29000 ng·h/mL
- Soluble fraction ([7]; 37° C.): 0.20 mg/mL of EYP001
- pH ([7]; pH given with the soluble fraction): 6.4

SMILES: NCCCC[C@H](N)C(=O)O.O=C(O)c1cc2c(Cl)c(N3CCN(S(=O)(=O)c4c(Cl)cccc4Cl)CC3)ccc2o1 [EYP001 L-lysine salt amorphous form, L-lysine salt of 4-chloro-5-[4-(2,6-dichlorophenyl)sulfonylpiperazin-1-yl]-1-benzofuran-2-carboxylic acid]
- Results [8, 12]: solid
- XRPD [8, 12]: Amorphous
- Results [8, 13]: solid
- XRPD [8, 13]: Form I
- Results [8, 14]: solid
- XRPD [8, 14]: Form I
- Results ([8]; Entry 9*: no solvent, milling): solid
- XRPD ([8]; Entry 9*: no solvent, milling): Amorphous
- Results [8, 15]: solid
- XRPD [8, 15]: Amorphous
- Mean AUClast [2, 16]: 4764.7 ng·h/mL
- Mean Cmax [2, 16]: 2130.0 ng/mL
- % increase/EYP001 (AUClast) [2, 17]: +41.1%
- % increase/EYP001 (Cmax) [2, 17]: +47.4%
- time found stable [9]: at least 19 days
- stability at high relative humidity (DVS) ([10]; 25° C.): unstable at high relative humidity
- mass loss during preliminary drying phase ([10]; 25° C./0% RH before sorption): 2.6%
- water uptake upon sorption (DVS) ([10]; 25° C./40% RH): 3.5 % wt.
- water uptake (DVS) ([10]; 25° C./60% RH, listed as EYP001 L-Lysine salt amorphous form): 6.8%
- water uptake upon sorption (DVS) ([10]; 25° C./75% RH): 11.5 % wt.
- water uptake upon sorption (DVS), after drastic decrease ([10]; 25° C./95% RH): 4 % wt.
- maximum hysteresis sorption/desorption ([10]; 25° C., listed as EYP001 L-Lysine salt amorphous form): 10.3%
- mass below the initial mass after desorption ([10]; back to 25° C./0% RH after full cycle): about 1.3 % wt.
- hygroscopicity (DVS) ([10]; hygroscopic above 2% mass gain at 25° C./60% RH, listed as EYP001 L-Lysine salt amorphous form): hygroscopic
- Soluble fraction [4, 18]: 0.029 mg/mL of EYP001
- Soluble fraction [4, 19]: 0.023 mg/mL of EYP001
- onset temperature of thermal decomposition (TGA) ([11]; heater ramp 10 ° C./min, nitrogen): 241 °C
- mass loss before the beginning of thermal decomposition (TGA) ([11]; upon heating): 2.4%
- Soluble fraction [5, 18]: 1.12 mg/mL of EYP001
- Soluble fraction [5, 19]: 1.13 mg/mL of EYP001
- Soluble fraction ([5]; after 2 h, listed as EYP001 L-Lysine salt (Amorphous form)): 1.12 mg/mL of EYP001
- Soluble fraction ([5]; after 24 h, listed as EYP001 L-Lysine salt (Amorphous form)): 1.11 mg/mL of EYP001
- pH ([5]; pH printed with the soluble fraction, after 0.5 h, listed as EYP001 L-Lysine salt (Amorphous form)): (pH = 4.9)
- pH ([5]; pH printed with the soluble fraction, after 1 h, listed as EYP001 L-Lysine salt (Amorphous form)): (pH = 4.9)
- pH ([5]; pH printed with the soluble fraction, after 24 h, listed as EYP001 L-Lysine salt (Amorphous form)): (pH = 5.0)
